According to ChEMBL document CHEMBL5291721, “A preclinical secondary pharmacology resource illuminates target-adverse drug reaction associations of marketed drugs” (Nat Commun, 2023):

What was measured:
[1] = molecular target: T1, Adenosine receptor A1 (Homo sapiens, UniProt P30542)
T1 sequence (P30542 whole entry): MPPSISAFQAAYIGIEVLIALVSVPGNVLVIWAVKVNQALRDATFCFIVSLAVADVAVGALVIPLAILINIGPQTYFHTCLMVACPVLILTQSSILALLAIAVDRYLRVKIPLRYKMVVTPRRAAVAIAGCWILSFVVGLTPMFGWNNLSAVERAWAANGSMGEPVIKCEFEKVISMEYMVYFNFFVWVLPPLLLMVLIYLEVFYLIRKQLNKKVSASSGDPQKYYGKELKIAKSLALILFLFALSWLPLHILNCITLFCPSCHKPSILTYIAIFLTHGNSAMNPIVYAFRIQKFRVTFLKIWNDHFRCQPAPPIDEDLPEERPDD

[2] = molecular target: T2, B2 bradykinin receptor (Homo sapiens, UniProt P30411)
T2 sequence (P30411 whole entry): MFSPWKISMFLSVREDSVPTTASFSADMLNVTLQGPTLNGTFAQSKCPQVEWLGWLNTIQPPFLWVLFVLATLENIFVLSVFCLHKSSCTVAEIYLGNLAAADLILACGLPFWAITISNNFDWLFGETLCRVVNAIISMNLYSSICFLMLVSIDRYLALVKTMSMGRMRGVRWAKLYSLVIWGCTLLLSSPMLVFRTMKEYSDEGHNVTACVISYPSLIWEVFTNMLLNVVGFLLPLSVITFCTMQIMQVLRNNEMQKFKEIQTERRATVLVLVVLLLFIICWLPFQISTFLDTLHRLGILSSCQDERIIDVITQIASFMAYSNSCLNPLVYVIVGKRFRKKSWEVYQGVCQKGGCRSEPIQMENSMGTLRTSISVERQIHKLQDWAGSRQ

[3] = molecular target: Voltage-dependent L-type calcium channel subunit alpha-1C (Rattus norvegicus, UniProt P22002); format: functional
Chain of Voltage-dependent L-type calcium channel subunit alpha-1C (P22002 whole entry): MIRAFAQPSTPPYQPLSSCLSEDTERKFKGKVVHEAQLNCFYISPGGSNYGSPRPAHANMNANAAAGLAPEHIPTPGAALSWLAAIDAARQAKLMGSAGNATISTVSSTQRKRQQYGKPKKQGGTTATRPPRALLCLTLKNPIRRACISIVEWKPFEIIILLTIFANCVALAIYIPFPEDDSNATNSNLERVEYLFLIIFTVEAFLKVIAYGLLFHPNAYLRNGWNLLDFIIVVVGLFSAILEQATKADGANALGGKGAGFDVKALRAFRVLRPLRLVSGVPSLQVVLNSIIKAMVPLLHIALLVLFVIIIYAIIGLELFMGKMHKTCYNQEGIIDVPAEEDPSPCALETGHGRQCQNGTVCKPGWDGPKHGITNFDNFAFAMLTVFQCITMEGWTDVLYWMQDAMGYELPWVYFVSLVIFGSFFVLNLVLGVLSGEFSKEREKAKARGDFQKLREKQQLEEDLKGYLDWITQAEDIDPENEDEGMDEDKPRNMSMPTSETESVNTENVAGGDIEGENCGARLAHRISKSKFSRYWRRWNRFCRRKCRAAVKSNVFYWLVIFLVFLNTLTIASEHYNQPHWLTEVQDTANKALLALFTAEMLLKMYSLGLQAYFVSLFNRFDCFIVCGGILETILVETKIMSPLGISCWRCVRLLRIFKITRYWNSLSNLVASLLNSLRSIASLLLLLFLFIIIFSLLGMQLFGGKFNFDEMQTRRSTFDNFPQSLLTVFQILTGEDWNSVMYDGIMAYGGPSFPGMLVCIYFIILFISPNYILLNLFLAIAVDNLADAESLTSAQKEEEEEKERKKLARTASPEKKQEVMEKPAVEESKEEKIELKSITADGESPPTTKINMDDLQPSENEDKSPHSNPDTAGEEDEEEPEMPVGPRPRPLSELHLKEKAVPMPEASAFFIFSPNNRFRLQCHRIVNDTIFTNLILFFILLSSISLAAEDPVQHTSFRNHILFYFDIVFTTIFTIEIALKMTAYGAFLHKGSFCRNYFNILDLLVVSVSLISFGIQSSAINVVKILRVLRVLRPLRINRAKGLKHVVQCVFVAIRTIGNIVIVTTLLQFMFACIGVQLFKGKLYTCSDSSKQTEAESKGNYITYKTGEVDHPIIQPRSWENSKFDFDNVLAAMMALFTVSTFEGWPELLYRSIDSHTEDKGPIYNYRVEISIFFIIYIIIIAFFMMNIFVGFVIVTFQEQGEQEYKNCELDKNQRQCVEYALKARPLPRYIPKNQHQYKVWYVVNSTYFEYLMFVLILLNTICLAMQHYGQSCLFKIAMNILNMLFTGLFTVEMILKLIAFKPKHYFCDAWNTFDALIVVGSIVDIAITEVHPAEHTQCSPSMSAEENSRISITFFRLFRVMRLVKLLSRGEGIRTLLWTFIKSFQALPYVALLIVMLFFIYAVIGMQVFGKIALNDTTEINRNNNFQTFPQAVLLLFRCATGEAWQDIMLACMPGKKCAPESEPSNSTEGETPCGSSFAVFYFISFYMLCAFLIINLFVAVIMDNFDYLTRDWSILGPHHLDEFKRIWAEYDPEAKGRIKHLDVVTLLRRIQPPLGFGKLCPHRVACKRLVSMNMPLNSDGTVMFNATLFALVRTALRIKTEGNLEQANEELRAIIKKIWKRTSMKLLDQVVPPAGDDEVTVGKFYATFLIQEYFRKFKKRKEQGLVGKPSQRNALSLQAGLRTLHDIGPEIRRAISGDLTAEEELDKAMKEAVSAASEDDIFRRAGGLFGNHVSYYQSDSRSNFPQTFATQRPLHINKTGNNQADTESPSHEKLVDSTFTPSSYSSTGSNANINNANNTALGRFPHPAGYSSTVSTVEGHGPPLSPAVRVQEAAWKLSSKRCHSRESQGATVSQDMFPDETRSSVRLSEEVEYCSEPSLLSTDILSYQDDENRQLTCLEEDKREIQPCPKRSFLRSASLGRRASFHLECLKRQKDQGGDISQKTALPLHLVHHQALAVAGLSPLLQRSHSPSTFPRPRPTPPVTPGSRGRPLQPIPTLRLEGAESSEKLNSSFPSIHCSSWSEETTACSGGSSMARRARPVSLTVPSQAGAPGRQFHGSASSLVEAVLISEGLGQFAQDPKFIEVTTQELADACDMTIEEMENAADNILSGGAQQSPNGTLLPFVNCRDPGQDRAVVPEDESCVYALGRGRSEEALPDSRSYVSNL

[4] = molecular target: Neuronal acetylcholine receptor subunit alpha-4 (Homo sapiens, UniProt P43681)
Chain of Neuronal acetylcholine receptor subunit alpha-4 (P43681 whole entry): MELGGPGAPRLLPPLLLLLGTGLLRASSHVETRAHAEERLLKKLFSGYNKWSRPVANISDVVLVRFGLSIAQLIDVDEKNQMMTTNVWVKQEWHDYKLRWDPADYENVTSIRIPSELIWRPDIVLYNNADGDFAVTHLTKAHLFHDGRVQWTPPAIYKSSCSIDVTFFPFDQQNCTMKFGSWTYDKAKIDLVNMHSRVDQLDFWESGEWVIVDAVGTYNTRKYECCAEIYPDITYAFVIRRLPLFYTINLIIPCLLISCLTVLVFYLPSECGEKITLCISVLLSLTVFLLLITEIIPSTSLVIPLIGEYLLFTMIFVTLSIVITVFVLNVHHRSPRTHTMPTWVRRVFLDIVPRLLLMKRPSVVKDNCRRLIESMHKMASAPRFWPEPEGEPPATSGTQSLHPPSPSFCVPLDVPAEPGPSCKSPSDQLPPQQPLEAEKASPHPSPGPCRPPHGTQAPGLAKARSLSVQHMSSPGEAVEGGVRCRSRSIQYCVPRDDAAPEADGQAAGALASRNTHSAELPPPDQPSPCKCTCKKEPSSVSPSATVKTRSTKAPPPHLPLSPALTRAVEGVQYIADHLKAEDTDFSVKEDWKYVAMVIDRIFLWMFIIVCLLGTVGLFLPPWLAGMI

[5] = molecular target: Growth hormone secretagogue receptor type 1 (Homo sapiens, UniProt Q92847)
Chain of Growth hormone secretagogue receptor type 1 (Q92847 whole entry): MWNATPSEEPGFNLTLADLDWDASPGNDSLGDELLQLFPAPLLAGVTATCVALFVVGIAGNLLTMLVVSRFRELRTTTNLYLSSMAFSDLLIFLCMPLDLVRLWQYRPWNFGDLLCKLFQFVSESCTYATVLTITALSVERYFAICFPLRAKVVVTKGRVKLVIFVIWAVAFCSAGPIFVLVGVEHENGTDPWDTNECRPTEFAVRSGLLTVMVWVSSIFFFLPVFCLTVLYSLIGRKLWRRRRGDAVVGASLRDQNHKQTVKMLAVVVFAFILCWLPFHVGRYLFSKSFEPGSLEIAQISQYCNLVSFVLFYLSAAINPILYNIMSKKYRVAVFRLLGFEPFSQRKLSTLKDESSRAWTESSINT

[6] = molecular target: 5-hydroxytryptamine receptor 2B (Homo sapiens, UniProt P41595); format: functional, cell-based
Chain of 5-hydroxytryptamine receptor 2B (P41595 whole entry): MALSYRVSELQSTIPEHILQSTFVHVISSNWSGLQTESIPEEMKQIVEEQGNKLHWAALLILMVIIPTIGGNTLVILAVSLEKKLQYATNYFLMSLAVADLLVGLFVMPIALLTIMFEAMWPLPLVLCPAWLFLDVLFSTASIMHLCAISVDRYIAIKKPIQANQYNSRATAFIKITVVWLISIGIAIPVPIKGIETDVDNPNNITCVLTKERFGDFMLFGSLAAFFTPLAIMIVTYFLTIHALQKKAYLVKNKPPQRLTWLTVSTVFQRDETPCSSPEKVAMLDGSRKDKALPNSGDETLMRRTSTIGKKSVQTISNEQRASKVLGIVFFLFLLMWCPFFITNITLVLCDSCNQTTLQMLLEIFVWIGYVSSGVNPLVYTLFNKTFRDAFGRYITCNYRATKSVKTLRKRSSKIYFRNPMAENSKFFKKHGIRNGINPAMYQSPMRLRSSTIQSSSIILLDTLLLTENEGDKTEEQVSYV

[7] = molecular target: T3, 5-hydroxytryptamine receptor 3A (Homo sapiens, UniProt P46098); format: functional
T3 sequence (P46098 whole entry): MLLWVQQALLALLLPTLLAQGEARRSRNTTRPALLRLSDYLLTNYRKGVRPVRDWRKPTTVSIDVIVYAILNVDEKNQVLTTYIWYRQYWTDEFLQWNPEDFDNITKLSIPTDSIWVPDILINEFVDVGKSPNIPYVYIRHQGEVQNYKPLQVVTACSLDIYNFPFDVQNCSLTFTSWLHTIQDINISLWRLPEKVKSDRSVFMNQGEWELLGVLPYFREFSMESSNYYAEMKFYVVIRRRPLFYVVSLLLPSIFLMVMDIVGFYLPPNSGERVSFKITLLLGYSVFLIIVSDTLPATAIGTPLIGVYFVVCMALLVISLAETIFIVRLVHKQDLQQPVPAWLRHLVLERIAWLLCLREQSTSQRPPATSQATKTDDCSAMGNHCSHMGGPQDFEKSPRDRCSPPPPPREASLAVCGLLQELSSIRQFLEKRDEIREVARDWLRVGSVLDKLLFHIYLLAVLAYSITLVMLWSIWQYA

[8] = molecular target: Motilin receptor (Homo sapiens, UniProt O43193)
[9] = molecular target: T4, Neuropeptide Y receptor type 1 (Homo sapiens, UniProt P25929)
T4 sequence (P25929 whole entry): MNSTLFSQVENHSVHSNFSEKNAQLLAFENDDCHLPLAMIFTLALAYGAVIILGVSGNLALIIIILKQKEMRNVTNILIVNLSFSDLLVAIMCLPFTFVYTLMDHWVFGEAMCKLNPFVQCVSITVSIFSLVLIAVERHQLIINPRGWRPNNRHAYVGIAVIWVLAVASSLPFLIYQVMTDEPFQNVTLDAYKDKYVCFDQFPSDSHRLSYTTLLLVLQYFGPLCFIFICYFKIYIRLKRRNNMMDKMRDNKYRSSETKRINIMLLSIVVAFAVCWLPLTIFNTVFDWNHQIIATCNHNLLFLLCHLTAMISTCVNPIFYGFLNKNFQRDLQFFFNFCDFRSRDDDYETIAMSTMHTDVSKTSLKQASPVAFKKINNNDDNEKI

[10] = molecular target: Kappa-type opioid receptor (Homo sapiens, UniProt P41145)
Chain of Kappa-type opioid receptor (P41145 whole entry): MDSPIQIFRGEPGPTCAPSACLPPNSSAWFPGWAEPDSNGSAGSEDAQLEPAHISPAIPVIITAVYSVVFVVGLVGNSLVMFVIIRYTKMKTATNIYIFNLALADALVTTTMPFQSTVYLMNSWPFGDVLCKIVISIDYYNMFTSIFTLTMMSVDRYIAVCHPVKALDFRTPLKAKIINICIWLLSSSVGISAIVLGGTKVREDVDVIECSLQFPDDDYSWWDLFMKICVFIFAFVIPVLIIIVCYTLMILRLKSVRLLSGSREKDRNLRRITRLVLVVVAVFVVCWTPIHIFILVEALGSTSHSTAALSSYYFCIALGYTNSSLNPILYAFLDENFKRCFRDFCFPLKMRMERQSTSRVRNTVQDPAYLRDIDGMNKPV

[11] = molecular target: Sodium-dependent dopamine transporter (Homo sapiens, UniProt Q01959)
Chain of Sodium-dependent dopamine transporter (Q01959 whole entry): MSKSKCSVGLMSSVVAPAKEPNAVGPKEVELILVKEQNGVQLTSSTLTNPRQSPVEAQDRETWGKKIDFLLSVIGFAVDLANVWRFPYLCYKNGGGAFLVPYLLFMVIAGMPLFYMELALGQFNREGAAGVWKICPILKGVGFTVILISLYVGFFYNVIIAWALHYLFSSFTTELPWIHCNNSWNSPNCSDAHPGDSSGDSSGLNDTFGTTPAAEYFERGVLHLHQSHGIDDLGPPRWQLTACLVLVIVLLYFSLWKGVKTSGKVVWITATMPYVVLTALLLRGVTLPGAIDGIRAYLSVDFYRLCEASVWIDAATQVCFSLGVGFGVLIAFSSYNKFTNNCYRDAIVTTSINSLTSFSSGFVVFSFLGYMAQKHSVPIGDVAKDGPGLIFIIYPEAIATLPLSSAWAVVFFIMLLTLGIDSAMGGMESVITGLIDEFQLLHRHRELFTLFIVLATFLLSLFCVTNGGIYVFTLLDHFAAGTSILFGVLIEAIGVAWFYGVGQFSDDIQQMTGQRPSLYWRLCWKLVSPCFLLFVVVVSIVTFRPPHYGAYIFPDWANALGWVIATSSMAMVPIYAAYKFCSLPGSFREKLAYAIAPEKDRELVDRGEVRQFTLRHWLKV

[12] = molecular target: D(3) dopamine receptor (Homo sapiens, UniProt P35462)
Chain of D(3) dopamine receptor (P35462 whole entry): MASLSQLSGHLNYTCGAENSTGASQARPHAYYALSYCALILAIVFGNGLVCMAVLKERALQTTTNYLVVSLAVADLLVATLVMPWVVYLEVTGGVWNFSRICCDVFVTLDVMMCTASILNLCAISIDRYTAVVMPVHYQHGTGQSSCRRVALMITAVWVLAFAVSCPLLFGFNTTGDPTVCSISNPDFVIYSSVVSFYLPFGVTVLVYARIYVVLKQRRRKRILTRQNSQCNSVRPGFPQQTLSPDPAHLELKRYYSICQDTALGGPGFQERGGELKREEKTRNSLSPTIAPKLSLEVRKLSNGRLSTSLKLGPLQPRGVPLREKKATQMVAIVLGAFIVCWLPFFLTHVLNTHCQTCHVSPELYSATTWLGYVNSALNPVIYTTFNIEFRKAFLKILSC

[13] = molecular target: T5, Muscarinic acetylcholine receptor M1 (Homo sapiens, UniProt P11229); format: functional
T5 sequence (P11229 whole entry): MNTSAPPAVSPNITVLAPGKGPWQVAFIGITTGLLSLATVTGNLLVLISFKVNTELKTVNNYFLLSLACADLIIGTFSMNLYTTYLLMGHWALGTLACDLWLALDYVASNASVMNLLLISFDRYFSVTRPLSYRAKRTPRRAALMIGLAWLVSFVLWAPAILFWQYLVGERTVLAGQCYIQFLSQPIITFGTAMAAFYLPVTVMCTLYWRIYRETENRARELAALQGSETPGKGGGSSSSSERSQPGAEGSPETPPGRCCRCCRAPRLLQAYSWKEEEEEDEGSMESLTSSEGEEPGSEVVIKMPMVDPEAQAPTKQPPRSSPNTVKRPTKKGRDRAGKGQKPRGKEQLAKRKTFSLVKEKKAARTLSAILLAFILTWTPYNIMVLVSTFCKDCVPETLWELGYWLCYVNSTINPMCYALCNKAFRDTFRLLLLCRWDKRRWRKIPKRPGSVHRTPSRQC
Note: assay procedure not described here.

| Compound | AC50 [1] | AC50 [6] | AC50 [7] | AC50 [10] | AC50 [12] | also measured |
| --- | --- | --- | --- | --- | --- | --- |
| N=C(N)NC(=O)c1nc(Cl)c(N)nc1N [AMILORIDE] | > 30 µM | > 30 µM | > 30 µM | > 30 µM | > 30 µM | AC50 [2]: > 30 µM; AC50 [3]: > 30 µM; AC50 [4]: > 30 µM; AC50 [5]: > 30 µM; AC50 [8]: > 30 µM; AC50 [9]: > 30 µM; AC50 [11]: > 30 µM |
| CC(C)(C)NCC(O)COc1ccccc1C#N (stereo unspecified) [BUNITROLOL] | > 30 µM | 21 µM | > 30 µM | > 30 µM | > 30 µM | AC50 [13]: > 30 µM |
| COc1ccc(C(=O)c2ccccc2)c(O)c1 [OXYBENZONE] | > 30 µM | > 30 µM | > 30 µM | > 30 µM | > 30 µM | AC50 [13]: > 30 µM |
| O=C(OOC(=O)c1ccccc1)c1ccccc1 [BENZOYL PEROXIDE] | > 30 µM |  |  |  |  |  |
| CC1=C(/C=C/C(C)=C\C=C\C(C)=C\C(=O)O)C(C)(C)CCC1 [ALITRETINOIN] | > 30 µM |  |  |  |  |  |
| COc1c(OCCCN2CCOCC2)ccc2c1N=C(NC(=O)c1cnc(N)nc1)N1CCN=C21 [COPANLISIB] | > 30 µM |  |  |  |  |  |
| C[C@@H](O)[C@H]1C(=O)N2C(C(=O)O)=C(S[C@@H]3CN[C@H](C(=O)Nc4cccc(C(=O)O)c4)C3)[C@H](C)[C@H]12 | > 30 µM |  |  |  |  |  |
| CC(=O)OC1CN2CCC1CC2 (stereo unspecified) [ACECLIDINE] | > 30 µM |  |  |  |  |  |
| CC(=O)O[C@]1(C(C)=O)CC[C@H]2[C@@H]3CCC4=CC(=O)CCC4=C3[C@@H](c3ccc(N(C)C)cc3)C[C@@]21C [ULIPRISTAL ACETATE] | > 30 µM |  |  |  |  |  |
| CC1(C)S[C@@H]2[C@H](NC(=O)[C@H](NC(=O)c3cnc4cccnc4c3O)c3ccccc3)C(=O)N2[C@H]1C(=O)O [APALCILLIN] | > 30 µM |  |  |  |  |  |
